From patent US8227610B2, “Compositions and methods for producing cellular labels for nuclear magnetic resonance techniques” (Carnegie Mellon University, priority 2007, dated 2012)

Columns and labels:
[1] = Critical micelle concentration estimated from light scattering intensity and particle size; format: physicochemical; parameters: critical micell concentration (CMC): unit not given here
Method: FIG. 1. PFPE amide 1 emulsified with Pluronic™ F68 by sonication in 1×HBSS buffer. Emulsion was diluted in 1×HBSS and particle size measured by Dynamic Light Scattering (DLS). Data represents average of two independent measurements, (mean±SD). Critical micelle concentration (CMC) of PFPE amide 1 is 22.2 mg/mL, in presence of 21.6 mol % F68 and 1×HBSS buffer, was estimated from the intersection of the graph of two curves. Measurements performed on Zetasizer Nano (Malvern, UK).
Pluronic™ F68 was dissolved in aqueous buffer (HBSS, Hyclone) at 150 mg/mL. PFPE amide 1 was added at 152 mg/mL, and the mixture (250 μL) was placed in an 1.5 mL Eppendorf vial and sonicated (at 20 W and 20 kHz) at room temperature for 30 seconds. The emulsion was then diluted 1:3 in 1×HBSS and the particle size was measured by dynamic light scattering in Malvern Zetasizer Nano within 1 h. The molar ratio of PFPE amide 1 to F68 was 4.6:1. The polydispersity (PDI) was 0.12 to 0.19 and the average particle size 200 nm. The critical micellar concentrations (CMC) for the PFPE amide 1 and F68 was estimated by plotting the light scattering intensity and average diameter and looking for the curve intersection, as shown in FIG. 1.

dendritic cells [2] = experiment: PFPE uptake in dendritic cells measured by 19F NMR; format: cell-based, mouse; details: 3 h incubation
Method: (§1) Labeling mouse dendritic cells was performed according to published methods with minor modifications^35. Dendritic cells were plated in 6-well plates, 1−2×10^6/well, and allowed to attach overnight. A PFPE diethyl amide 1/L35 emulsion was mixed with 0.3 mL of serum free media, incubated for 30 min at room temperature, and then added to the cells. After a 3 h incubation at 37° C., the cell labeling medium was removed and cells were washed three times with 1×PBS, detached by trypsinization, washed, and resuspended in 0.5 mL of complete media containing 10% FBS. A portion of the cell suspension (1/10) was used for cell number estimates by Cell Titer Glo. The cells were pelleted\ and resuspended in 0.1 mL of media for ^19F NMR measurements to assess the cell loading.
When dendritic cells were used, the cell suspension (0.1 mL) was mixed with 100 ul of 1% TFA solution in glycerol as a calibrated ^19F reference. The two solutions were mixed well and transferred into a 5 mm NMR tube. Cell uptake was calculated from the relative areas under the peak at −91.5 ppm (PFPE main peak) and the TFA internal standard peak at −76 ppm. Cellular uptake (i.e., the parameter Fc) was calculated as the mean number of fluorine atoms per single viable cell.

dendritic cells [3] = experiment: Cell number and viability of labeled dendritic cells by Cell Titer Glo; format: cell-based, mouse; details: after labeling
Method: In the examples given below, cellular number was estimated using the commercial assay Cell Titer Glo (Promega). The assay implementation is easy and highly reproducible. A correlation curve was constructed for each labeling experiment at the day of experiment using the same cell culture. When testing the viability post-labeling, a small sample (50 μL) was taken from labeled cell suspension and mixed with Cell Titer Glo reagent in triplicate. Luminescence was measured within 10 minutes and the viable cell number was estimated from a linear correlation curve prepared on the day of experiment.
as §1

Substance	critical micell concentration (CMC) ([1]; PFPE-tyramide 6/F68 24:1, thin film method, water)	uptake in DCs by 19F NMR (in words) (dendritic cells [2])	cell viability / toxicity in DCs (in words) (dendritic cells [3])	critical micelle concentration (CMC) ([1]; 1×HBSS) [mg/mL]
Perfluoropolyether tyramide [PFPE tyramide 6]	4.5	comparable to the cell labeling experiments that were facilitated with protamine sulfate	non-toxic over various doses	
Perfluoropolyether diethyl amide [PFPE amide 1]				22.2
